This note sets out measurements from US20090137544A1 (priority 2006, published 2009).

Read-outs that look alike come from different tables or passages of the source. Some results are limits rather than exact numbers.

Data set [1] relates to Hedgehog signaling activity. Nature of the data set: Gli-luciferase reporter assay in rat hepatic stellate cell line. Type of data set: cell-based. The note with it: for CONCENTRATION REGION restoring Hedgehog signaling activity / PREFERRED CONCENTRATION restoring Hedgehog signaling activity: alcohol-treated hepatic stellate cells; for efficacy order on hedgehog signaling: fish and rat liver cell line. The method, then: The Gli-luciferase reporter assay was performed in duplicated experiments of a rat hepatic stellate cell line, […]. Briefly, […] cells, were grown in DMEM medium supplemented with 10% fetal bovine serum and penicillin and streptomycin (100 U/ml). At 40-50% confluency, cells were transfected with Gli-BS-Firefly luciferase plasmid (60 ng nl^−1) and Renilla luciferase plasmid ([…], pRL-TK, Promega) (concentration ratio 10:1) by using FuGENE 6 Transfection Reagent (Roche Applied Science). […] Two hours later, the medium was added to different drugs (20α-OHC, 22(S)-OHC, 25-OHC and cholesterol). After 16 hrs, the cells were washed three times in ice-cold PBS, and then were assayed by Dual/Luciferase Reporter Assay System (Promega). Activity of the Firefly luciferase reporter was normalized to the activity of a Renilla luciferase internal control for transfection efficiency.

Data set [2] deals with zebra fish embryos. Nature of the data set: Zebra fish embryo exposure to alcohol, cyclopamine or AY-9944: survival and phenotype. Particulars: for developmental malformations of treated embryos: transient treatment during gastrulation, alcohol 2%, cyclopamine 10.0 μM, AY-9944 7.5 μM.
Data set [3] has as its system Hh-responsive Gli-BS luciferase reporter. In words: Gli-luciferase reporter assay in embryos. Type of data set: in vivo, zebra fish. The method, then: The Gli-luciferase reporter assay was performed in replicate experiments of pooled embryos (n=15). Briefly, zebra fish embryos at the 1-2 cell stage were microinjected with 0.5 nl of Gli-BS-Firefly luciferase plasmid (60 ng nl^−1) and Renilla luciferase plasmid (60 ng nl^−1, pRL-TK, Promega). Reporter activity was determined by using the Dual-Luciferase Reporter Assay System (Promega). Activity of the Firefly luciferase reporter was normalized to the activity of a Renilla luciferase internal control for transfection efficiency.
(§1) Embryos were microinjected at 1-2 cell stage with 0.2 nl of 5 μg μl^−1 ([…]) cholesterol (BioVision Inc.) with or without the two plasmids for the Gli-luciferase reporter assay. […] At 48 hpf embryos were analyzed.

Data set [4] concerns zebra fish embryos. In words: Cholesterol microinjection rescue of alcohol-exposed embryos. Type of data set: in vivo. The note with it: 48 hpf. The method, then: as §1
For data set [5] the following is noted: alcohol exposure during gastrulation, dose-related. The method, then:
Cholesterol content was then measured by the Arnplex Red Cholesterol Assay Kit (Invitrogen).

Data set [6] concerns Shh. Particulars: alcohol-exposed embryos, Western blot. The text has this: Total cellular protein was isolated as previously described^51 and cell membrane proteins were isolated using the Mem-PER(r) Eukaryotic Membrane Protein Extraction Reagent Kit (Pierce Biotechnology). Proteins (4o μg) in Laemmli buffer were then separated by 12% Tris-HCl SDS-polyacrylamide gel electrophoresis and transferred to a PVDF membrane. Membranes were blocked, washed, and exposed to primary antibodies (Santa Cruz Biotechnology) against Shh (N-19, Catalog number: sc-1194; dilution: 1:2.500) and β-actin (1:1.000). Signals were detected by Anti-goat HRP antibody (1:10.000, Amersham).

Data set [7] has as its system Shh.
Data set [8] deals with zebra fish embryos. Particulars: zebrafish, in vivo.
For data set [9] the following is noted: chronic alcohol feeding versus both control groups, p<0.001.
The subject of data set [10] is zebra fish embryos. Particulars: 2.0% alcohol for 6 hours from 4.3 hpf, no supplement; 72 hpf.
The test system of data set [11] is Shh. Particulars: 0.6% alcohol (w/v, 109 mM) for 30 minutes.
Data set [12] relates to Shh target genes Ptc, Gli1, Nkx2.2. Particulars: real-time quantitative PCR. How it is done: Total RNA was extracted from embryos (n=10) with RNeasy kits (Qiagen). RT-PCR were performed using primers (information listed in following table) as previously described.^52
A further data set deals with Shh secretion. Particulars: 3 hours, HSC 8B cells, Elisa. How it is done:
Applicant analyzed proteins collected from the HSC 8B culture medium for Shh ligand content using two independent methods: Western blot analysis and Elisa assay. […] The cultures were incubated for an additional 3 hours, and culture medium was then harvested and concentrated for protein isolation.

For data set [13] the following is noted: alcohol-exposed embryos. An excerpt:
Upon esterified reaction, then the cholesterol ester can be transported from the embryonic yolk to the body. […] The fluorescent molecule, Filipin can selectively bind to free cholesterol, but not cholesterol ester; in other hand, the dye of oil red O identifies neutral lipids molecules such as cholesterol ester, but not polarized free cholesterol. First, applicant quantitatively analyzed the free cholesterol by whole mount in situ filipin staining.

The test system of another data set is Caveolin-1/Shh complex. The note with it: alcohol 0.3, 0.5, 0.6, 0.8% w/v for 2 hours. An excerpt: First, as described in FIG. 6, cellular proteins isolated by non-ionic detergent resistant cellular extraction were fractionalized by density gradient ultracentrifugation. […] Fractions 7 through 9 from the density gradient were pooled and used in the immunoprecipitation assay.

In data set [14] the test system is Shh. This is another data set of the same source.

In the case of “2,6,10,15,19,23-Hexamethyl-2,6,20,24,28,22-Tetracosahexaene [Squalene]”, in data set [1], the “CONCENTRATION REGION restoring Hedgehog signaling activity” value lay in the range of 0.1 to 100 µM; the “PREFERRED CONCENTRATION restoring Hedgehog signaling activity” value is 1 to 10 µM; the “efficacy order on hedgehog signaling” value was “efficacy order is 25-OHC, 22(S)-OHC, cholesterol, 20α-OHC and followed with squalene”.

As to `CC1=C2C[C@H]3[C@@H](CC=C4C[C@@H](O)CC[C@@]43C)[C@@H]2CC[C@]12O[C@@H]1C[C@H](C)CN[C@H]1[C@H]2C` [cyclopamine, 11-deoxojervine, reference compound], in the data set with zebra fish embryos [2], the “developmental malformations of treated embryos” value was “HPE and partial cyclopia, as well as underdevelopment of the craniofacial bones and muscles, and failure of the heart tube to loop”.

For `CC(C)CCC(O)[C@@H](C)[C@H]1CC[C@H]2[C@@H]3CC=C4C[C@@H](O)CC[C@]4(C)[C@H]3CC[C@]12C` (stereo partly drawn) [22(S)-Hydroxycholesterol, 5-cholestene-3b,22-diol], in data set [1], the “CONCENTRATION REGION restoring Hedgehog signaling activity” value lay within 0.1 to 100 µM; the “PREFERRED CONCENTRATION restoring Hedgehog signaling activity” value lay within 1 to 5 µM; the “efficacy order on hedgehog signaling” value was “efficacy order is 25-OHC, 22(S)-OHC, cholesterol, 20α-OHC and followed with squalene”.

On to `Cl.Cl.Clc1ccccc1CNC[C@H]1CC[C@H](CNCc2ccccc2Cl)CC1` [AY-9944, trans-1,4 bis-(2-dichlorobenzylaminomethyl) cyclohexane dihydrochloride, reference compound], for which the “developmental malformations of treated embryos” value in the data set with zebra fish embryos [2] was “HPE and partial cyclopia, as well as underdevelopment of the craniofacial bones and muscles, and failure of the heart tube to loop”.

Turning to `CC(C)CCC[C@@H](C)[C@H]1CC[C@H]2[C@@H]3CC=C4C[C@@H](O)CC[C@]4(C)[C@H]3CC[C@]12C` [Cholesterol, 10,13-dimethyl-17-(6-methylheptan-2-yl)-2,3,4,7,8,9,11,12,14,15,16,17-dodecahydro-1H-cyclopenta[a]phenanthren-3-ol], the “Gli-BS reporter activity in cholesterol-supplemented, alcohol-exposed embryos” value in [3] (cholesterol 10 pg microinjected at 1-2 cell stage, various alcohol concentrations during gastrulation) is reported as “preserved at all doses of alcohol exposure”. Moreover, in the data set on zebra fish embryos [4] (cholesterol-supplemented (10 pg), alcohol-exposed embryos), the “embryos that appeared grossly normal” value is on record as 94.8%. Also, in [1], the “CONCENTRATION REGION restoring Hedgehog signaling activity” value fell in the range of 1 to 50 µM; the “PREFERRED CONCENTRATION restoring Hedgehog signaling activity” value was 1 to 20 µM; the “efficacy order on hedgehog signaling” value is “efficacy order is 25-OHC, 22(S)-OHC, cholesterol, 20α-OHC and followed with squalene”.

With `CCO` [Alcohol, ethanol], the “total cholesterol content of the embryos” value in data set [5] is “decrease in the total cholesterol content”. In the data set with Shh [6], the “Shh in cellular membrane protein fraction” value is recorded as “progressive loss of Shh from the cellular membrane protein fraction”. Further, the “Shh distribution pattern relative to ER marker” value in the data set on Shh [7] (0.6% (w/v) alcohol for one hour) is “diffuse, homogeneous distribution pattern”. In addition, the “punctate co-localized Caveolin-1/Shh particles” value with Shh [7] (alcohol 0.4% and 0.8% (w/v) for thirty minutes) is “dramatically decreased in an alcohol dose dependent manner”. In addition, in the data set on zebra fish embryos [8], the “embryos alive at 48 hpf” value amounted to 10%, the “embryos alive with minimal abnormalities at 48 hpf” value came to 18%, the “embryos alive with normal phenotypes at 48 hpf” value was found to be 72.3% and the “living embryos phenotypically normal at 48 hpf” value was determined as 2.6%. Also, the “ratio of cholesterol ester to total cholesterol in plasma” value in data set [9] is listed as “significantly decreased”. Besides, the “survival rate at 48 hpf” value in the data set on zebra fish embryos [2] (0.25% alcohol for 6 h, late blastula-gastrula stage (second window)) was “over 90%”. Moreover, the “embryos survived to 48 hpf” value in the data set on zebra fish embryos [2] (0.25% alcohol, first exposure window (1 to 2 cell stages to 3 hpf)) was less than 40%. Moreover, in the data set on zebra fish embryos [2] (0.25% alcohol, second exposure window), the “embryos that failed to survive to 48 hpf” value is less than 10%. Besides, in the data set with zebra fish embryos [2] (2% alcohol, second exposure window), the “embryos survived through 48 hpf with abnormal morphology” value is on record as 84%. Moreover, the “embryos for which exposure was lethal” value in the data set on zebra fish embryos [2] (2% alcohol, second exposure window, 48 hpf) was determined as 13%. For the same compound, the “embryos developed relatively normal on gross morphology” value in the data set on zebra fish embryos [10] is listed as 15%. For the same compound, in the data set with Shh [11], the “density gradient distribution of Shh” value is listed as “restricted to fractions 12 through 17”. For the same compound, in data set [3] (following alcohol exposure (0.25-2.0%)), the “Gli-BS luciferase activity in embryos” value was “decreased in a dose-related fashion”. Further, in data set [12] (0.25% alcohol), the “change in expression of Ptc or Gli1” value was “no significant change” and the “decrease of Nkx2.2 expression” value is recorded as “about 50%”. Moreover, the Shh transcription result in data set [12] (alcohol concentrations higher than 1.0%) is “decreased”. Further, the “decrease in Shh secretion” value with Shh secretion (0.3% (55 mM) alcohol) is reported as 1.2 fold. Also, the “decrease in Shh secretion” value in the data set on Shh secretion (0.6% (109 mM) alcohol) turned out to be 4.2 fold. Also, the “decrease in Shh secretion” value with Shh secretion (0.8% (136 mM) alcohol) came to 5.5 fold. For the same compound, the “embryos with FASD-like phenotypes” value in the data set on zebra fish embryos [4] (alcohol-exposed, unsupplemented embryos) worked out at 83.3%. Moreover, in data set [13], the “cholesterol ester (oil red O staining) in embryo yolk and body” value is given as “dramatic decrease of cholesterol ester in the embryonic yolk, with little or no change in its concentration in the embryonic body”; the “free cholesterol (filipin staining) in embryo body and yolk” value was “large decrease in cholesterol concentration in the embryonic body, but not in the embryonic yolk”. Further, in [1] (alcohol 0.25, 0.5, 0.75 and 1.0% v/v versus no alcohol (A0)), the “Hedgehog signaling (Gli binding site derived luciferase activities) in hepatic stellate cells” value was “decrease Hedgehog signaling activates”. In the data set on Caveolin-1/Shh complex, the “amount of Caveolin-1 in the lipid raft fractions” value is recorded as “did not affect the amount of Caveolin-1” and the “amount of Shh in Caveolin-1 containing lipid raft fractions (fractions 7-9)” value was “decreased in an alcohol dose-dependent manner”. Also, the “co-localization of Shh and lipid raft” value with Shh [14] (alcohol 0.25% v/v for 5 minutes) is on record as “disrupted”. In the data set with Shh [14] (alcohol 1% for one hour), the Shh localization entry was “almost all of the Shh protein was accumulated inside of the liver stellate cells”.

In the case of `CC(C)CCC[C@](C)(O)[C@H]1CC[C@H]2[C@@H]3CC=C4C[C@@H](O)CC[C@]4(C)[C@H]3CC[C@@]21C` [20α-Hydroxycholesterol, 20-hydroxycholesterol], in data set [1], the “CONCENTRATION REGION restoring Hedgehog signaling activity” value lay in the range of 0.1 to 100 µM; the “PREFERRED CONCENTRATION restoring Hedgehog signaling activity” value lay within 1 to 5 µM; the “efficacy order on hedgehog signaling” value was “efficacy order is 25-OHC, 22(S)-OHC, cholesterol, 20α-OHC and followed with squalene”.

As to `C[C@H](CCCC(C)(C)O)[C@H]1CC[C@H]2[C@@H]3CC=C4C[C@@H](O)CC[C@]4(C)[C@H]3CC[C@]12C` [25-hydroxycholesterol, 5-cholestene-3b,25-diol], in data set [1], the “CONCENTRATION REGION restoring Hedgehog signaling activity” value is 0.1 to 100 µM; the “PREFERRED CONCENTRATION restoring Hedgehog signaling activity” value lay within 5 to 15 µM; the “efficacy order on hedgehog signaling” value is “efficacy order is 25-OHC, 22(S)-OHC, cholesterol, 20α-OHC and followed with squalene”.
